Experiment in all cases: growth of human tumour cells (NCI), 48 h
Test [1] deals with BT-549 breast.
Test [2] has as its system HCC-2998 colon.
Test [3] concerns HCT-15 colon.
For test [4], the system named is HT29 colon.
Test [5] deals with MCF7 breast.
For test [6], the system named is MOLT-4 leukemia.
For test [7], the system named is OVCAR-4 ovarian.
In test [8] the test system is PC-3 prostate.
The test system of test [9] is RPMI-8226 leukemia.
The test system of test [10] is RXF 393 renal.

Where “and” joins values, the source holds several entries; their conditions need not be identical. Identical values can stand only once.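 Tested at 5 concentrations; 48 h exposure; 96-well plates; endpoints linearly interpolated, else capped at highest concentration. Abbreviation: GI50, concentration required for 50% inhibition of growth. TGI denotes the concentration required for complete inhibition of growth.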

With `COc1ccc2c(c1OC)O/C(=C\c1ncc([N+](=O)[O-])n1C)C2=O`, the GI50 was 1770 nM in [1]; 2160 nM in test [2]; 487 nM in test [3]; 836 nM in test [4]; 2060 nM in [5]; 266 nM in test [6]. For the same compound, the GI50 is 5950 nM in test [7], 3.76 µM in test [8], 3070 nM in test [9] and 774 nM in test [10]. Further, the TGI in test [1] is 4.46 µM; in [2] it was 4.73 µM; in test [3], 3.61 µM; in [4] it was 5.02 µM; in [5], over 27.8 µM; in test [7] it was over 75.2 µM. Besides, the TGI was over 29.4 µM in [8], 16.4 µM in [9] and 2.27 µM in [10].

Turning to `N#[N+]c1ccc(Nc2ccccc2)cc1`, the GI50 in test [1], in [2], in [3], in [4], in [5] and in [6] was over 50 µg/mL each time. The GI50 in [7] was 0.472 µg/mL; in test [8], over 50 µg/mL; in test [9], over 50 µg/mL; in test [10], over 50 µg/mL. Also, the TGI in test [1], in test [2], in test [3], in test [4], in test [5] and in test [6] was over 50 µg/mL throughout. Further, the TGI was 2.27 µg/mL in [7], over 50 µg/mL in test [8], over 50 µg/mL in [9] and over 50 µg/mL in test [10].

As for `CC(=O)Oc1cc2cnc3c4cc(OC(C)=O)c(OC(C)=O)cc4ccc3c2cc1OC(C)=O`, the GI50 in test [1] was 1350 nM; in test [2], 3740 nM; in [3] it was 1060 nM; in test [4] it was 4180 nM; in test [5], 638 nM; in test [6] it was 812 nM. Also, the GI50 is 1350 nM in [7], 3.27 µM in test [8], 1660 nM in test [9] and 1790 nM in test [10]. Besides, the TGI in [1] was 8.4 µM; in test [2], over 100 µM; in test [3] it was over 100 µM; in [4] it was over 100 µM; in [5] it was over 100 µM; in test [6], over 100 µM. Besides, the TGI in [7] is over 100 µM; in test [8], over 100 µM; in [9], over 100 µM; in test [10], 8.88 µM.

For the compound `COc1ccc(-c2cc(/C=C/C(=O)c3ccc(N)cc3)[nH]n2)cc1`, the GI50 in test [1] was 1740 nM; in [2], 1830 nM; in [3], 1000 nM; in test [4] it was 2750 nM; in test [5] it was 708 nM; in test [6], 2320 nM. The GI50 in test [7] was 1080 nM; in test [8], 2.42 µM; in test [9] it was 600 nM; in [10], 1670 nM. For the same compound, the TGI in test [1] was found to be 4.78 µM; in test [2], 3.36 µM; in [3], 3.62 µM; in test [4], 8.11 µM; in [5], 3.84 µM; in [6] it was 9.48 µM. The TGI was found to be 8.01 µM in test [7], 10.1 µM in test [8], 3.22 µM in [9] and 4.19 µM in test [10].

As to `COc1ccc(C(O)c2cc3c(N)c(C(=O)Nc4cccc(Br)c4C)sc3nc2C)cc1` (stereo not given), the GI50 in test [1] was 479 nM; in test [2], 426 nM; in [3] it was 138 nM; in [4], 120 nM; in [5] it was 116 nM; in test [6] it was 177 nM. In addition, the GI50 in [7] was 2810 nM; in test [8], 0.618 µM; in test [9], 167 nM; in [10], 94.4 nM. In addition, the TGI in [1] is 15.4 µM; in [2], 2.84 µM; in test [3], over 14.4 µM; in test [4], 5.77 µM; in test [5] it was over 33.3 µM; in [6], over 33.3 µM. Besides, the TGI was over 33.3 µM in test [7], 18.4 µM in test [8], over 33.3 µM in test [9] and 2.22 µM in test [10].

As to `CC1(C)N=C(N)N=C(N)N1c1cccc(CCc2ccccc2)c1`, the GI50 in [1] was 577 nM; in [2] it was 1690 nM; in test [3] it was 45600 nM; in test [4] it was 135 nM; in test [5], 297 nM; in test [6], 599 nM. Besides, the GI50 is 528 nM in [7], 0.11 µM in test [8], 1630 nM in test [9] and 3820 nM in test [10]. Also, the TGI in [1] was over 46.7 µM; in test [2], over 38.7 µM; in test [3], over 100 µM; in test [4], 18.6 µM; in test [5] it was over 43 µM; in test [6], over 89.2 µM. The TGI in [7] is 79.5 µM; in test [8], over 59 µM; in test [9] it was over 58.6 µM; in [10], over 100 µM.

As to `COc1cc(NC2CCCCC2O)c2nc(-c3ccc(Cl)cc3)ccc2c1` (stereo not given), the GI50 in [1] was 40700 nM; in test [2] it was 13400 nM; in test [3], 2940 nM; in test [4], 4290 nM; in test [5] it was 358 nM; in test [6], 3000 nM. Also, the GI50 in [7] was 10100 nM; in [8] it was 4.87 µM; in [9], 3660 nM; in test [10], 2780 nM. Moreover, the TGI in [1] was over 100 µM; in test [2] it was over 100 µM; in [3], 22.4 µM; in test [4] it was 23.8 µM; in [5], 35.5 µM; in test [6] it was 46.6 µM. Besides, the TGI in test [7] was over 100 µM; in test [8] it was over 100 µM; in test [9], 25 µM; in test [10], 4.58 µM.

As to `COc1ccc(C2=Nn3c(nnc3-n3nc(C)cc3C)SC2)cc1`, the GI50 was 192 nM in test [1]; 254 nM in test [2]; 50 nM in test [3]; 40.1 nM in test [4]; 64.2 nM in test [5]; 116 nM in [6]. The GI50 is 4530 nM in test [7], 0.0453 µM in test [8], 60.5 nM in test [9] and 59.9 nM in [10]. Also, the TGI in [1], in [2], in test [3], in [5], in [6] and in test [7] was over 100 µM in each case. The TGI is over 100 µM in [8], over 70.3 µM in test [9] and over 100 µM in test [10].

Take `CC(=O)OCC1OC(n2c3c(cc(C#N)c2=S)CCCC3)C(OC(C)=O)C(OC(C)=O)C1OC(C)=O` (stereo not given): the TGI in test [1] is over 100 µM; in test [2], over 100 µM; in test [3] it was over 100 µM; in test [4], 83.9 µM and > 100 µM; in [5], over 100 µM; in test [6], over 100 µM. Moreover, the TGI in [7] was over 100 µM; in test [8] it was over 100 µM; in test [9] it was over 100 µM; in test [10], > 100 µM and 63.7 µM. In addition, the GI50 in test [2] was 41300 nM and > 100000 nM; in test [4], 26700 nM and > 100000 nM; in test [5], 48400 nM and > 100000 nM; in test [6], 31900 nM and > 100000 nM; in test [8], 36.6 µM and > 100 µM; in test [9], 32600 nM and > 100000 nM. In addition, in [10], the GI50 is > 100000 nM and 20400 nM.

The values above are taken from PubChem BioAssay (NCI).
